How the values were obtained:
[1] = system: Gem-naïve and Gem-resistant PDAC cells; test: Colony formation assay; format: cell-based, human
Protocol: (§1) S2-013 (FIG. 10A), MiaPaCa-2 (FIG. 10B) and MiaPaCa-GTR (FIG. 10C) show cells seeded at 1000 cells/well and treated with compounds (μM) for 14 days. Media was replaced every 72 hours. Cells were stained with 0.05% crystal violet. Conditioned media from MiaPaCa-2 cells after being treated with indicated compounds was separated on a zymogram gel to analyze the proteolytic activity of MMP9 after treatment (FIG. 10D).
FIG. 11: Inhibition of colony formation in S2-013 cells.
S2-013, MiaPaCa-2 and MiaPaCa-GTR were seeded at 1000 cells/well and treated with compounds (μM) for 14 days. Media was replaced every 72 h. Cells were stained with 0.05% crystal violet (FIG. 10A-C).

[2] = system: Panc-1 cells; test: Wound-healing (scratch) migration assay; format: cell-based, human; settings: Panc-1, 5 μM, 12 hours
Protocol: FIG. 12: Panc-1 and S2-013 cells plated in 24-well plate in a monolayer and scratch wound made with a 200 μl pipette tip and treated with indicated compounds at 5 μM for 12 hours.
The present Example investigates whether ARDAs inhibit the migratory and invasive potential of PDAC cells. Decreased invasive potential of PDAC cells was shown through wound-healing and matrigel-coated Boyden chambers assays. Cells grown to a monolayer were used in migration assay after a scratch was made and incubated for 12 hours. […] In contrast, CGP and Gem were not effective. As expected these compounds also exerted strong anti-invasive efficacy against Capan-1 cells. The tested concentrations at time (12 h) of assay, all cells in each treatment group were ≥90% viable.

[3] = system: MiaPaCa-2; test: MTT cell viability / anti-proliferative assay; format: cell-based, human; settings: for anti-proliferative potency compared with gemcitabine: MiaPaCa-2 cells, MTT assay after a 7-day agent treatment
Protocol: FIG. 6: Inhibition of PDAC cell proliferation: MTT assay after a 7-day agent treatment.
(§2) FIG. 7: Effect of Galeterone, analogs and Gemcitabine on PDAC cells. MTT cell viability assays were conducted on Gem-naïve and Gem-resistant cells.
The present Example presents the in vitro anti-proliferative activities of compounds in three human PDAC cell lines, including, Capan-1, MiaPaCa-2 and S2-013 because of their relative resistant nature (30, 31). The cell lines used were authenticated by short tandem repeat.
(§3) The present Example investigates the potential efficacy of galeterone and three lead ARDAs in inhibiting cell viability of both gemcitabine naïve (Gem-naïve) and gemcitabine/erlotinib resistant human pancreatic cancer cells in vitro. […] Galeterone and its analogs show significant anti-proliferative active against both gemcitabine naïve and gemcitabine resistant PDAC cells.

[4] = system: S2-013; test: MTT cell viability assay; format: cell-based; settings: Homo sapiens, S2-013, single agent
Protocol: as §2, §3

[5] = system: MiaPaCa-GR; test: MTT cell viability assay; format: cell-based; settings: Homo sapiens, MiaPaCa-GR (gemcitabine resistant), single agent
Protocol: as §2
(§4) Examples below were preformed using a panel of PDAC cells from primary tumors (MiaPaca-2, Panc-1, Capan-1 and HS766T), metastatic lesions (S2-013 and S2VP10) and drug-resistant MiaPaCa-GR (gemcitabine resistant-200 nM) and MiaPaCa-GTR (erlotinib-2 μM/gemcitabine-200 nM) cell lines. The activities of ARDAs and Gemcitabine (Gem) can be evaluated using complementary assays and molecular determinants can also be identified in a panel of human PDAC cells. The mechanism(s) of action of ARDAs alone and in combination with Gem with the primary goal to identify the key mediators for their activities in PDAC cells are disclosed here. […] Initially four cell line (2 Gem-naïve and the two Gem-resistant lines) will be used. Key findings derived from these cell lines can be validated in additional cell lines if necessary. How these agents modulate Mnk1/2-peIF4E and NFκ-B can also be focused on.
(§5) The present Example investigates the potential efficacy of galeterone and three lead ARDAs in inhibiting cell viability of both gemcitabine naïve (Gem-naïve) and gemcitabine/erlotinib resistant human pancreatic cancer cells in vitro. […]

[6] = system: MiaPaCa-GTR; test: MTT cell viability assay; format: cell-based; settings: Homo sapiens, MiaPaCa-GTR (gemcitabine/erlotinib resistant), single agent
Protocol: as §2, §4, §5

[7] = system: MMP9; test: Zymography of conditioned media from MiaPaCa-2 cells; format: cell-based, human; settings: conditioned media of MiaPaCa-2 cells treated 3 days
Protocol: as §1
Zymography assays were performed by seeding cells in 10 cm plates in phenol-red free media with no fetal bovine serum (FBS) and treated for 3 days. Media from cells were concentrated using amicon ultra filtration columns and normalized protein run on a 10% gelatin gels. Conditioned media from MiaPaCa-2 cells after being treated with indicated compounds was separated on a zymogram gel to analyze the proteolytic activity of MMP9 after treatment (FIG. 10D). […] The ARDAs caused significant depletion of matrix metalloproteinases (MMPs).

[8] = system: S2-013; test: Apoptosis, acridine orange ethidium bromide staining; format: cell-based, human; settings: S2-013 metastatic cell line, 2.5 μM, 24 hours
Protocol: (§6) FIG. 18: Apoptotic induction of Gal and Analogs and Gem-resistant PDAC cells. (FIG. 18A) Galeterone and analogs induce apoptosis in S2-013 cells analyzed by acridine orange ethidium bromide staining. Cells were treated with 2.5 μM. (FIG. 18B) Galeterone and analogs were compared to gemcitabine in inducing apoptosis analyzed by flow cytometry in MiaPaCa-GR cells.
(§7) Cells treated with indicated doses for 24 hours were analyzed by acridine orange ethidium bromide assay and also by FACS analysis using Annexin V and PI staining following manufacturer's protocol. […] Galeterone and analogs induce apoptosis in S2-013 cells analyzed by acridine orange ethidium bromide staining ([…]). Galeterone and analogs were compared to gemcitabine in inducing both early and late apoptosis analyzed by flow cytometry (FIG. 18B).

[9] = system: MiaPaCa-GR; test: Apoptosis, flow cytometry Annexin V and PI staining; format: cell-based, human; settings: MiaPaCa-GR cells, 24 hours
Protocol: as §6, §7

[10] = compared to VN/124-1, reference (1); cited from earlier work
[11] = target: T1, androgen receptor (Homo sapiens, UniProt P10275); settings: compared to VN/124-1, reference (1); cited from earlier work
T1 sequence (P10275 1-920): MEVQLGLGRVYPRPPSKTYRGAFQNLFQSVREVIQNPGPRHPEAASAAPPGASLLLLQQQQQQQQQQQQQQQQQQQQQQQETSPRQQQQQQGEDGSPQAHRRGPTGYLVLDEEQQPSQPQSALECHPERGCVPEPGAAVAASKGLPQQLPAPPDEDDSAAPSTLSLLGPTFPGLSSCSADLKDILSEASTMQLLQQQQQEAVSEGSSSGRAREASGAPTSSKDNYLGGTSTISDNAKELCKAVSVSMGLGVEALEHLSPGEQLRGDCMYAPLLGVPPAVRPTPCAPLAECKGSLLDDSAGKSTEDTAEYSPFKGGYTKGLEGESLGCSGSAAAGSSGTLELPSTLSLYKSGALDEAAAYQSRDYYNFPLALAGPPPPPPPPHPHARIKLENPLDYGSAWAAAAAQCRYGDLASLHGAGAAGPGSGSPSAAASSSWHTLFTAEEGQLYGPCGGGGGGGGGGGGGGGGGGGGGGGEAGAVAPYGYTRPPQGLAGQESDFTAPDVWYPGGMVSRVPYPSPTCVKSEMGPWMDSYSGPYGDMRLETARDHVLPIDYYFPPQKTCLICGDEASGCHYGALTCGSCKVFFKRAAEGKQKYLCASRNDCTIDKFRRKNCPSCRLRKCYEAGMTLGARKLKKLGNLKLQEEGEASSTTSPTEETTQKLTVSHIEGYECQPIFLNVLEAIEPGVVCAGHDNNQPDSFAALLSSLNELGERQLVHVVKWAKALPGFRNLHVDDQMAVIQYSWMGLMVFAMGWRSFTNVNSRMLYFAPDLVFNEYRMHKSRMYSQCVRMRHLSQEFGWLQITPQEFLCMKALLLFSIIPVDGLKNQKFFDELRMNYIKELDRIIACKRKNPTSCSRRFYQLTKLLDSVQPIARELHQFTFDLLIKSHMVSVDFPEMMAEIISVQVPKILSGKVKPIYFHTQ

[12] = system: patients with advanced-stage pancreatic cancer; settings: in combination with gemcitabine, Moore et al. 2007; cited from earlier work
[13] = 1000 cells/well, treated 14 days, alone or in combination with gemcitabine

With `Nc1ncnc2n[nH]c(Nc3ccc(F)cc3)c12` [CGP, reference compound] as the compound, how does the colony formation ([1]; CGP at 2.5 μM) read?
The colony formation was “did not significantly affect colony formation”.

What about the cell migration [2] of the same compound?
Its cell migration is “not effective”.

Which GI50 ([3]; Homo sapiens, MIA PaCa-2, MiaPaCa-2, single agent, MTT) does the source give for `C[C@]12CC[C@H](O)CC1=CC[C@@H]1[C@@H]2CC[C@]2(C)C(n3cnc4ccccc43)=CC[C@@H]12` [Galeterone, galeterone] here?
Its GI50 is 1230 nM.

And the “anti-proliferative potency compared with gemcitabine” value [3]?
Its value is “almost as potent as gemcitabine”.

And the GI50 [4]?
The GI50 was 490 nM.

And the GI50 [5]?
Its GI50 is 7.08 µM.

And the GI50 [6]?
Its GI50 is 2190 nM.

And the colony formation [1, 13]?
The colony formation was “significantly inhibited”.

And the MMP9 secretion ([7]; alone)?
Its MMP9 secretion is “decreases MMP9 secretion”.

What about the MMP9 secretion ([7]; in combination with gemcitabine) of the same compound?
Its MMP9 secretion is “decreases MMP9 secretion”.

And the cell migration [2]?
Its cell migration is “significant inhibition”.

And the induction of apoptosis [8]?
The induction of apoptosis was “significantly induce apoptosis”.

And the induction of apoptosis [9]?
The induction of apoptosis was “significantly induce apoptosis”.

For `Nc1ccn([C@@H]2O[C@H](CO)[C@@H](O)C2(F)F)c(=O)n1` [Gemcitabine, reference compound], which colony formation [1, 13] is on record?
Its colony formation is “inhibit colony formation”.

What about the cell migration [2] of the same compound?
Its cell migration is “not effective”.

What does the source list for `C[C@]12CC[C@H](OCc3ccncc3)CC1=CCC1C2CC[C@]2(C)C(n3cnc4ccccc43)=CCC12` (stereo partly shown) [VNPP414]?
anti-proliferative potency compared with gemcitabine [3]: almost as potent as gemcitabine; cell migration [2]: significant inhibition

Which “anti-proliferative potency compared with gemcitabine” value [3] does the source give for `C[C@]12CC[C@H](n3ccnc3)CC1=CC[C@@H]1[C@@H]2CC[C@]2(C)C(n3cnc4ccccc43)=CC[C@@H]12` [VNPP433-3β] here?
The value was “almost as potent as gemcitabine”.

Which “anti-proliferative potency compared with gemcitabine” value [3] does the source give for `C[C@]12CC[C@H](OC(=O)n3ccnc3)CC1=CCC1C2CC[C@]2(C)C(n3cnc4ccccc43)=CCC12` (stereo partly shown) [VNPT-55] here?
Its value is “almost as potent as gemcitabine”.

What about the “anti-proliferative (AP) potency relative to VN/124-1” value [10] of the same compound?
Its value is 4 fold.

What about the “ARD potency relative to VN/124-1” value [11] of the same compound?
Its value is 8 fold.

Which “median overall survival benefit” value [12] does the source give for `C#Cc1cccc(Nc2ncnc3cc(OCCOC)c(OCCOC)cc23)c1` [erlotinib] here?
The value was “less than four weeks”.

From US11707468B2, “Methods of treating pancreatic cancer” (UNIVERSITY OF MARYLAND, BALTIMORE, priority 2014, dated 2023)
